Values after ≈ are worked out from the molar mass of the structure shown. “Also recorded” adds a separate entry of the source. Like-named read-outs stand apart in the source and are kept apart here.
Tests used:
mouse epididymal sperm = assay: Reversibility of effect on sperm motility after washing; format: cell-based; settings: after washing the cells with fresh medium
Procedure: An important goal for the development of agents to be used for contraception is to assess the reversibility of their effect on sperm. To achieve this, we treated mouse sperm in the absence and presence of either 13 or 45 and measured epididymal sperm motility before and after washing the cells with fresh medium.
Mouse epididymal sperm were treated in the absence or presence of compounds 13 or 45 for one hour in Whitten’s medium. After an initial measurement of sperm motility using CASA, the sperm was washed by centrifugating the sample at 300× g for 3 min and resuspension in fresh Whitten’s medium. Then, sperm motility was determined again using CASA for the different times and for up to 180 min.
Figure 7 Reversibility of the effect of compounds 13 and 45. Mouse epididymal sperm were treated in the absence (untreated control) or presence of 13 (A) or 45 (B) for one hour. Then, the sperm was washed, and motility was measured before and after washing the cells using CASA. Sperm movement was followed during the indicated times. Values are expressed as the mean ± SEM of three determinations. Samples treated with 13 and 45 were statistically different from the untreated controls, with p < 0.05.

physchem = format: physicochemical; settings: PBS pH 7.4
Procedure: The stock solutions of 11 and 45 were prepared in DMSO at a concentration of 30 mM, and the stock solution of the control compound was prepared in DMSO at a concentration of 30 mM. Progesterone was used as a positive control in the assay. An amount of 10 µL of stock solution of each compound was placed in order into their proper 96-well rack, followed by adding 990 µL of PBS at pH 7.4 into each vial of the capless Solubility Sample plate. This study was performed in duplicate. One stir stick was added to each vial and then sealed using a molded PTDE/SIL 96-Well Plate Cover (Pharmaron, Waltman, MA, USA). The Solubility Sample plate was transferred to the Thermomixer Comfort plate shaker and incubated at RT for 2 h with shaking at 1100 rpm. After 2 h of incubation, stir sticks were removed using a big magnet, and all samples from the Solubility Sample plate were transferred into the filter plate. All the samples were filtered using a vacuum manifold. The filtered samples were diluted with methanol. The soluble fraction (filtrate) was then analyzed by LC-MS/MS, and the compound concentration was determined using 0.3 μM standard solutions prepared from DMSO stocks. The experimental details are reported in the Supporting Information (Table S1). […]
Table S1 . Solubility Results of Test C ompound and Control C ompound in […]
Compound ID Solubility (µM)
Preparation of Stock Solutions: The stock solutions of test compounds were prepared in DMSO at the concentration of 30 mM, and the stock solution of control compound was prepared in DMSO at the concentration of 30 mM.
Progesterone was used as positive control in the assay.
Solubility Determination: 10 µL stock solution of each compound was placed in order into their proper 96-well rack, followed by adding 990 µL of PBS at pH 7.4 into each vial of the cap-less Solubility Sample plate. This study was performed in duplicate. One stir stick was added to each vial and then vials were sealed using a molded PTDE/SIL 96-Well Plate Cover. The Solubility Sample plate was transferred to the Thermomixer Comfort plate shaker and incubated at RT for 2 hours with shaking at 1100 rpm. After 2 hours incubation, stir sticks were removed using a big magnet and all samples from the Solubility Sample plate were transferred into the filter plate. All the samples were filtered by using the Vacuum Manifold. The filtered samples were diluted with methanol. The dilution factor might be changed according to the solubility value and the LC/MS signal response. To prepare 0.3 µM Standards (STD), 30 mM DMSO compound stock solutions were diluted with DMSO to 300 µM and then diluted with methanol to obtain 0.3 µM STDs. Samples were analyzed by LC-MS/MS. All calculations were carried out using Microsoft Excel. The solution filtered was analyzed and quantified against a standard of known concentration in DMSO using LC coupled with Mass spectral peak identification and quantitation. The solubility values of the test compounds were calculated as follow DF means the dilution factor
1. Chromatographic conditions
Apparatus: Triple QuadTM 5500 instrument from AB Inc (Canada) with an ESI interface Column: XSelect Hss T3 2.5µ (2.1×50 mm) Column XP coupled with preguard column Mobile phase: 0.1% formic acid in acetonitrile (A) and 0.1% formic acid in water (B) […]

mouse sperm = assay: Sperm viability (Live/Dead assay); format: cell-based; settings: 10 µM, one hour
Procedure: To assess whether 13 and 45 affected sperm viability, we treated mouse sperm with the compounds for one hour at 10 µM and determined the number of live and dead cells in the sample.
Figure 5 Cell viability after treatment with compounds 13 and 45. Mouse caudal epididymal sperm was subjected to a medium not supporting capacitation to 10 µM of 13 and 45. After one hour, sperm was subjected to the Live/Dead assay as per the manufacturer’s recommendations. Cells were counted as viable/non-viable and expressed as the mean ± SEM of three determinations.

[1] = aqueous buffer, kinetic from dmso stock, read-out: Solubility

Which results are given for `C[C@]12CC[C@H]3[C@@H](CC=C4C[C@@H](O)CC[C@@]43C)[C@@H]1CC[C@@H]2c1cn(Cc2ccccc2)nn1` [Compound 13, (3S,8S,9S,10R,13S,14S,17S)-17-(1-Benzyl-1H-1,2,3-triazol-4-yl)-10,13-dimethyl-2,3,4,7,8,9,10,11,12,13,14,15,16,17-tetradecahydro-1H-cyclopenta[a]phenanthren-3-ol]?
Reversibility of effect on sperm motility (mouse epididymal sperm): maintained over time; also recorded: not reversible; Solubility (physchem): poor; Solubility (physchem; [1]): 0.3 µM (≈ 0.129 µg/mL); Sperm viability (mouse sperm): the same as that of the untreated controls

For `CC12CCC(=O)C=C1CCCC2n1cc(-c2ccccc2)nn1` (centres unmarked) [Compound 45, 4a-Methyl-5-(4-phenyl-1H-1,2,3-triazol-1-yl)-4,4a,5,6,7,8-hexahydronaphthalen-2(3H)-one], which “Reversibility of effect on sperm motility” value (mouse epididymal sperm) is on record?
Its value is “maintained over time; also recorded: not reversible”.

What about the Solubility (physchem) of the same compound?
Its Solubility is “good”.

What about the Solubility (physchem; [1]) of the same compound?
The Solubility was 256 µM (≈ 78.7 µg/mL).

And the Sperm viability (mouse sperm)?
The Sperm viability was “the same as that of the untreated controls”.
